The target of one test is T1, Piezo1Rs (Homo sapiens, UniProt Q92508).
T1 construct: SV-40 immortalized human microglia cell line which endogenously express Piezo-1 and Piezo2Rs was used; endogenous in cells; host or cells: SV-40 immortalized human microglia cell line
Description: Calcium imaging of Yoda1-evoked Ca2+ transients in SV-40 immortalized human microglia cell line. In kind it is cell-based. To be noted: control SV-40 cells, n=13. As for the experimental part: To study the calcium influx evoked by native Piezo1 Rs expressed in microglia cells the present inventors used short Yoda1 applications (2 s, 50 μM if not otherwise specified). For this purpose, human IPSO derived microglia cells and SV-40 (immortalized human microglia) cells were seeded on 7 mm cover slips 1 day prior to the imaging experiment. Cells were loaded with the calcium-sensitive fluorescent dye Fluo-4AM (5 μM) for 30 min at 37° C. Followed by wash-incubation for 15 min in Ab 20 μM, 50 μM GdCI and basic solution (BS) as a control at 37° C. The basic solution containing the following (BS, in mM): 2.5 KCl, 152 NaCl, 10 glucose, 2 CaCl2, and 10 HEPES at pH 7.4. Fluorescence was visualized using monochromatic light source (TILL Photonics GmbH) using Ex/Im 494/[…] and a CCD camera (SensiCam). […] To quantify the difference in the amplitude of calcium transients, the ratio values were normalized by subtracting a baseline and further divided by the amplitude of the calcium transient to the 2 sec application of the ionomycin. Data were pre-analyzed offline using the FEI offline analysis (TILL Photonics), and further analysis was automatized using MatLab. Quantitative data were expressed as means±SEM unless otherwise stated. […] Significance assessed with the ANOVA test or Mann-Whitney t test for non-parametric data. […]

Another test concerns the target T2, native Piezo1Rs (Homo sapiens, UniProt Q92508).
T2 construct: endogenous in cells; host or cells: human iPSC-derived microglia
Description: Calcium imaging of Yoda1-evoked Ca2+ influx in hiPSC-derived microglia. In kind it is cell-based. To be noted: 50 μM Yoda1, control hiPSC microglia pre-incubated 15 min in BS, n=6. The method, then: To study the calcium influx evoked by native Piezo1 Rs expressed in microglia cells the present inventors used short Yoda1 applications (2 s, 50 μM if not otherwise specified). For this purpose, human IPSO derived microglia cells and SV-40 (immortalized human microglia) cells were seeded on 7 mm cover slips 1 day prior to the imaging experiment. Cells were loaded with the calcium-sensitive fluorescent dye Fluo-4AM (5 μM) for 30 min at 37° C. Followed by wash-incubation for 15 min in Ab 20 μM, 50 μM GdCI and basic solution (BS) as a control at 37° C. The basic solution containing the following (BS, in mM): 2.5 KCl, 152 NaCl, 10 glucose, 2 CaCl2, and 10 HEPES at pH 7.4. Fluorescence was visualized using monochromatic light source (TILL Photonics GmbH) using Ex/Im 494/[…] and a CCD camera (SensiCam). Chemicals were applied using a fast perfusion system (RSC-200, BioLogic Science). To quantify the difference in the amplitude of calcium transients, the ratio values were normalized by subtracting a baseline and further divided by the amplitude of the calcium transient to the 2 sec application of the ionomycin. Data were pre-analyzed offline using the FEI offline analysis (TILL Photonics), and further analysis was automatized using MatLab. Quantitative data were expressed as means±SEM unless otherwise stated. Number of experiments is indicated by n. Significance assessed with the ANOVA test or Mann-Whitney t test for non-parametric data. Statistically significant differences were set at*p<0.05 and **p<0.01.
Differentiation of microglia. Differentiation of microglia was carried out as previously described with minor modifications (Abud et al., 2017). Shortly, on DO, iPSCs were dissociated to single cells with 0.5 mM EDTA or Accutase and were replated at a density of 6-,000-16,000 cells/cm2 on Matrigel in E8, 0.5% penicillin/streptomycin (P/S, 50 IU/50 […]), 5 ng/ml BMP4, 25 ng/ml activin a (both from Peprotech or Miltenyi Biotec), 1 μM CHIR 99021 (Axon or Stem Cell Technologies) and 10 μM Y-27632 to induce mesodermal differentiation. […]

T1 sequence (Q92508 whole entry): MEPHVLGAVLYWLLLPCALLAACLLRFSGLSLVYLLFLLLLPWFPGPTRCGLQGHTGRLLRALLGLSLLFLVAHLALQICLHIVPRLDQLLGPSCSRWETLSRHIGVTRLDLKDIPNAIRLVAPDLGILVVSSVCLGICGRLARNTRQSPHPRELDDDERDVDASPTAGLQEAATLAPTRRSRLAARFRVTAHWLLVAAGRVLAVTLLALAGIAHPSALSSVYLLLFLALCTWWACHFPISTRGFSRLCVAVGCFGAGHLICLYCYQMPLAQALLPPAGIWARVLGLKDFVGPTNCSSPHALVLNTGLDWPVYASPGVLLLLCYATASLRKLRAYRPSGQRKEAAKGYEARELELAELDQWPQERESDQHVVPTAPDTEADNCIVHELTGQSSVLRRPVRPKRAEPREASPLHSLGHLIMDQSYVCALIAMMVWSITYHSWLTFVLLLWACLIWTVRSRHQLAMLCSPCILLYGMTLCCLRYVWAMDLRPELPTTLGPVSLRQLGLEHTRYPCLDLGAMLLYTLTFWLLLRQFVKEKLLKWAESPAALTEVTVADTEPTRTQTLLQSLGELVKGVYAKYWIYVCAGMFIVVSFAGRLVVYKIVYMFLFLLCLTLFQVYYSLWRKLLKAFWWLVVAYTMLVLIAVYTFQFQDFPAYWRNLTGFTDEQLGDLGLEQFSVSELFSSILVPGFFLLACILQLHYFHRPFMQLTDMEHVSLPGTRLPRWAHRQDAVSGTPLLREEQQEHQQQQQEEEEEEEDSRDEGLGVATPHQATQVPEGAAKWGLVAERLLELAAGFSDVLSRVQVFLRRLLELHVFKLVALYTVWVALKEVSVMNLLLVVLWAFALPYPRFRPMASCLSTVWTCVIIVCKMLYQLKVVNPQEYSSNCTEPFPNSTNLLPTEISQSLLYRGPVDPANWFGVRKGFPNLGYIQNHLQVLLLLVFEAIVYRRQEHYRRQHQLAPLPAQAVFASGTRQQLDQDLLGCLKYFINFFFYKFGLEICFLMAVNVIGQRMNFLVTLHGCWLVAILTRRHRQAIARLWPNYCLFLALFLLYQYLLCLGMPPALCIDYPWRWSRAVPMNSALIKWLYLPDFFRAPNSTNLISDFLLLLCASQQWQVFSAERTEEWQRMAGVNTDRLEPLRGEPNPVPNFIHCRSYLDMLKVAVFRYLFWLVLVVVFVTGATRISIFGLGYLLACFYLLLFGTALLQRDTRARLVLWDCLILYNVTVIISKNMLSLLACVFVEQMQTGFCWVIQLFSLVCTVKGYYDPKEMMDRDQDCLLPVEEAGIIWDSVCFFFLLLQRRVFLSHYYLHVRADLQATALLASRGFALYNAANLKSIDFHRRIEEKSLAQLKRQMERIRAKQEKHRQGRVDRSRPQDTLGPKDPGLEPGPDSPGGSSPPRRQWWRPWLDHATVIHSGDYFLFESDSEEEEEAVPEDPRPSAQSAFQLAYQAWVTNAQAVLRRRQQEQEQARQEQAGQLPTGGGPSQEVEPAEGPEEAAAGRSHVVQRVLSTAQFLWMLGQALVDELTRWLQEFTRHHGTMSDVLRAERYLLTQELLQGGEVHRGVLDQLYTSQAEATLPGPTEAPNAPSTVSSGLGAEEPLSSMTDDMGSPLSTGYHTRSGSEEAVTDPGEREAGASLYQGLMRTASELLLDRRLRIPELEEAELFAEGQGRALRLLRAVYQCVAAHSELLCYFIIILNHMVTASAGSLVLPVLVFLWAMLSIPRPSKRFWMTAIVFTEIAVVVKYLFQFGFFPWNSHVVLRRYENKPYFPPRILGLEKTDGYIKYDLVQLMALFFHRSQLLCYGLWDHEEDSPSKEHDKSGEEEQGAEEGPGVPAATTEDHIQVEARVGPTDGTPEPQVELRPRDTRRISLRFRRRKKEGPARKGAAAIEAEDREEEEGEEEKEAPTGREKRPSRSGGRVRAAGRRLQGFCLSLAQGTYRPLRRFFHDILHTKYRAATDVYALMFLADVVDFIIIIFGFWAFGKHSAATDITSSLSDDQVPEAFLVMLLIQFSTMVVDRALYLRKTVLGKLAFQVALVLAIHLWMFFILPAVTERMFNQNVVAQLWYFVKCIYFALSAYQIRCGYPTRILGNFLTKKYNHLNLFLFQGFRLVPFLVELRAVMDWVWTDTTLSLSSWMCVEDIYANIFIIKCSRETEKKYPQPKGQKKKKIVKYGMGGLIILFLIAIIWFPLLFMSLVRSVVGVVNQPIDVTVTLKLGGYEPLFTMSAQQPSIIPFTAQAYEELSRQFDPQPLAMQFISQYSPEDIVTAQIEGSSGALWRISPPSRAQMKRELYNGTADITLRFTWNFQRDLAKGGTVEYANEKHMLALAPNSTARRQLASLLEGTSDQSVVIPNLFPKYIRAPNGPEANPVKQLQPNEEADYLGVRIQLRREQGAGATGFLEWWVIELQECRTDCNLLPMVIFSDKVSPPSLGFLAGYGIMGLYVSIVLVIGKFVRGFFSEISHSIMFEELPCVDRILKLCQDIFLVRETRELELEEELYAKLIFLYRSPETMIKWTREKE
T2 sequence (Q92508 whole entry): as above

Consider `Clc1cccc(Cl)c1CSc1nnc(-c2cnccn2)s1` [Yoda1], for which the “Yoda1 activated Ca2+ transients, amplitude normalized to ionomycin” value at Piezo1Rs came to 0.82±0.14. The “Ca2+ transients evoked by Yoda1 short (2 s) application, amplitude normalized to ionomycin” value at native Piezo1Rs came out at 1.15±0.36.

(Values after patent US20220265646A1, “PIEZO AGONISTS FOR PREVENTING OR REVERTING ABNORMAL AMYLOID DEPOSITION” (ITÄ-SUOMEN YLIOPISTO, priority 2019, published 2022).)
